Measurements from US20090170762A1, “Treatment of Diabetes Related Obesity” (UUTech Limited, priority 2005, published 2009).
Ends that are not written are not given here.

Columns and labels:
human GIP-R = target: T1, human GIP-R (Homo sapiens, UniProt P48546); test: Cyclic AMP production in GIP-R transfected CHL cells; assay type: cell-based
T1 construct: expressed in transfected cells; host or cells: Chinese Hamster Lung (CHL) fibroblast cells, stably transfected
T1 sequence (P48546 22-466): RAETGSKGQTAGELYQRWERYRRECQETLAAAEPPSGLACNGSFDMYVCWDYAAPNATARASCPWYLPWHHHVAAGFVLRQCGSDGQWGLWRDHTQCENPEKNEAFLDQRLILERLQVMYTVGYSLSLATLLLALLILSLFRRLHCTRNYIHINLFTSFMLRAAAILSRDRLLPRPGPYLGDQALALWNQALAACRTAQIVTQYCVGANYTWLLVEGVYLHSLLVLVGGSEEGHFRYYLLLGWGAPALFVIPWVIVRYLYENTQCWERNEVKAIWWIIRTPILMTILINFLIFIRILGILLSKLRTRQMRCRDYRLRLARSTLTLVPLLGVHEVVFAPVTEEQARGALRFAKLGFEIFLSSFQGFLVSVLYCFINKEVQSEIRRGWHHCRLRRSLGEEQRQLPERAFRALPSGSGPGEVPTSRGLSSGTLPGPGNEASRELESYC
Summary of the method: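 Cells washed in ice-cold HBS buffer (5.6 mm glucose, pH 7.4), then lysed in TCA/SDS solution with unlabelled cAMP and ATP. Tritiated cAMP formation measured by Dowex and alumina ion-exchange column chromatography.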

ob/ob mice [1] = test: 14 once-daily injections of GIP analogues in ob/ob mice; assay type: in vivo, mouse; details: 14 days daily, insulin 50 U/kg
Protocol: (§1) Animals. Obese diabetic (ob/ob) mice derived from the colony maintained at Aston University, UK (Bailey C. J. et al., 1982, Int. J. Obes. 6:11-21) were used at 14-18 weeks of age. Animals were age-matched, divided into groups and housed individually in an air-conditioned room at 22±2° C. with a 12 hour light: 12 hour dark cycle (08:00-20:00 hr). Drinking water and a standard rodent maintenance diet (Trouw Nutrition, Cheshire, UK) were freely available. All animal experiments were carried out in accordance with the UK Animals (Scientific Procedures) Act 1986.
Methods. […] Intraperitoneal glucose tolerance (18 mmol/kg body wt) and insulin sensitivity (50 U/kg body wt) tests were performed at the end of the study period. Blood samples taken from the cut tip of the tail vein of conscious mice at the times indicated in the Figures were immediately centrifuged using a Beckman microcentrifuge (Beckman Instruments, UK) for 30 seconds at 13,000×g. The resulting plasma was then aliquoted into fresh Eppendorf tubes and stored at −20° C. prior to glucose and insulin determinations.

adult ob/ob mice = details: daily 11 days (Gault 2005); cited from earlier work
ob/ob mice [2] = test: Acute antihyperglycaemic and insulin releasing activity with glucose and native GIP in ob/ob mice; assay type: in vivo, mouse; details: 25 nmol/kg i.p. with GIP and glucose 18 mmol/kg, vs native GIP
Protocol: as §1
Biochemical analysis. Plasma glucose was assayed by an automated glucose oxidase procedure ([…]) using a Beckman Glucose Analyzer II (Beckman Instruments, Galway, Ireland). Plasma insulin was assayed by radioimmunoassay.
Methods. […] All test solutions were administered in a final volume of 5 ml/kg body weight. Blood samples were collected from the cut tip of the tail vein of conscious mice into chilled fluoride/heparin coated glucose microcentrifuge tubes (Sarstedt, Numbrecht, Germany) immediately prior to injection and at 15, 30 and 60 minutes post injection. Blood samples were immediately centrifuged using a Beckmnan microcentrifuge (Beckman Instruments, High Wycombe, Buckinghamshire, UK) for 30 seconds at 13,000×g. Plasma glucose was assayed using a Beckman Glucose Analyzer n (Beckman Instruments, High Wycombe, Buckinghamshire, UK) (Stevens, J. F., 1971, Clin. Chim. Acta 32:199-201) and plasma insulin was determined by RIA (Flatt, P. R. and Bailey, C. J., 1981, Diabetologia 5:573-577). All animal studies were carried out in accordance with the UK Animals (Scientific Procedures) Act 1986.

DPP-IV = DPP-IV (Homo sapiens, UniProt P27487); test: Degradation of GIP and Glu3-substituted GIP analogs by DPP-IV (HPLC); assay type: in vitro ADME
DPP-IV, sequence (P27487 whole entry, species assumed): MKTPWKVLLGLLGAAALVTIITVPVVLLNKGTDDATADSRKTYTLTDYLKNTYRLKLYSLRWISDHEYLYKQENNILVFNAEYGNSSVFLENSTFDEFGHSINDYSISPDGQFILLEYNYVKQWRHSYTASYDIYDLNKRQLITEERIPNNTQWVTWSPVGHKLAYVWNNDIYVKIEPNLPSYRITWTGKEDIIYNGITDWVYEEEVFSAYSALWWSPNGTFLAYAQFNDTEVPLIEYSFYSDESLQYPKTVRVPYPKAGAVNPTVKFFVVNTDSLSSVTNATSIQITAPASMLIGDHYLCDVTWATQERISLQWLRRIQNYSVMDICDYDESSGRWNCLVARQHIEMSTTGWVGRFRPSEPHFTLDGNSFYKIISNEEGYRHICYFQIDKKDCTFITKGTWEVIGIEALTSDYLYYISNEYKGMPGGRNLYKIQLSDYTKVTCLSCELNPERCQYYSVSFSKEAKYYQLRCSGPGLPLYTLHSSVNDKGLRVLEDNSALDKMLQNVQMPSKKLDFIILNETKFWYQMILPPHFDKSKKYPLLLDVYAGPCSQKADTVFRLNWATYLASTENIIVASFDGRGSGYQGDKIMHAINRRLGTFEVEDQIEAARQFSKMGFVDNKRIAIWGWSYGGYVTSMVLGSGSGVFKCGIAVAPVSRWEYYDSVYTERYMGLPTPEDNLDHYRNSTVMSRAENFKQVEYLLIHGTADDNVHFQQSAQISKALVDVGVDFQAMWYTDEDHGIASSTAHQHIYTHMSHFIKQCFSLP

YAPGTFISDYSIAMDKIHQQDFVNWLLAQKGKKNDWKHNITQ [(Pro^3)GIP]
EC50 (human GIP-R): 207 nM
remaining activity at 0.1 µM (human GIP-R; CHL, read-out: cAMP response in presence of 10^-7 M GIP (% GIP max)): 66 ± 7%
inhibition of GIP-stimulated cAMP production (human GIP-R; in presence of GIP (10^-7 m)): significantly inhibited
hypoglycemic action of insulin (ob/ob mice [1]): significantly augmented
features of type 2 diabetes (adult ob/ob mice): improved many of the characteristic features of type 2 diabetes
plasma glucose and insulin profiles when administered together with native GIP (ob/ob mice [2]): significantly inhibited the action of GIP
half-life at 2 μm (DPP-IV; DPP-IV enzyme (5 mU) in buffer, pH 7.8, incubation with DPP-IV, unit not given (time points in hrs), read-out: Estimated Half-Life (converted)): > 8 h
Intact Peptide Remaining (%) 0 hrs. (DPP-IV; incubation with DPP-IV (5 mU), 37°C, pH 7.8, 0 hrs): 100%
remaining at 2 h, 2 μm (DPP-IV; isolated DPP-IV enzyme (5 mU), incubation with DPP-IV (5 mU), 37°C, pH 7.8, 2 hrs, read-out: Intact Peptide Remaining (%) 2 hrs.): 100%
remaining at 4 h, 2 μm (DPP-IV; isolated DPP-IV enzyme (5 mU), incubation with DPP-IV (5 mU), 37°C, pH 7.8, 4 hrs, read-out: Intact Peptide Remaining (%) 4 hrs.): 100%
remaining at 8 h, 2 μm (DPP-IV; isolated DPP-IV enzyme (5 mU), incubation with DPP-IV (5 mU), 37°C, pH 7.8, 8 hrs, read-out: Intact Peptide Remaining (%) 8 hrs.): 100%
resistance to DPP-IV degradation (DPP-IV; words, up to 8 hours incubation): completely resistant
